≈ marks a conversion by molar mass, not a printed value. Where “and” joins values, the source holds several entries; their conditions need not be identical. Equal entries are not always repeated. Where two headings read alike, the source gives them in different places.
How the values were obtained:
[1] = system: extracellular Mm; experiment: MIC90 resazurin microtiter assay against extracellular M. marinum; format: cell-based, Mycobacterium marinum
[2] = system: intracellular Mm in murine BMDMs; experiment: Anti-mycobacterial efficacy in M. marinum-infected BMDMs (CFU plating); format: cell-based, Mycobacterium marinum; details: for IC90: Mycobacterium marinum
[3] = system: Mtb; parameters: method as in data not published; details: in vitro, phenotypic HTS; ref data not published; cited from earlier work
[4] = system: VERO cells; parameters: method as in data not published; details: cytotoxicity in VERO cells; ref data not published; cited from earlier work

With `CO[C@H]1/C=C/O[C@@]2(C)Oc3c(C)c(O)c4c(O)c(c(/C=N/N5CCN(C)CC5)c(O)c4c3C2=O)NC(=O)/C(C)=C\C=C\[C@H](C)[C@H](O)[C@@H](C)[C@@H](O)[C@@H](C)[C@H](OC(C)=O)[C@@H]1C` [RIF, rifampicin] the MIC90 ([1]; Mycobacterium marinum, extracellular Mm, resazurin assay, read-out: MIC90) was 0.1 µg/mL and 0.12 µM, the IC99 [2] was 1.97 µg/ml and 2.41 µM and the IC90 ([2]; intracellular M. marinum in BMDM, calculated from the macrophage infection assay data, read-out: IC90) was 0.878 µg/mL and 1.07 µM.
For `COc1ccc2c(ccc3oc([N+](=O)[O-])cc32)c1` [C16, 7-methoxy-2-nitronaphtho[2,1-b]furan], the MIC90 ([1]; Mycobacterium marinum) was 0.016 µg/mL and 0.07 µM, the MIC90 ([1]; extracellular Mm, resazurin assay) was 0.016 µg/mL and the MIC90 ([1]; extracellular Mm, resazurin assay, read-out: MIC90) was 0.07 µM. For the same compound, the IC90 ([2]; BMDM) was 0.013 µg/mL and 60 nM, the IC99 ([2]; intracellular M. marinum in BMDM, calculated from the macrophage infection assay data) was 0.03 µg/ml and 0.11 µM and the “MIC90 against Mtb” value [3] was less than 8 µg/mL. The CC50 [4] was 0.3 µg/mL (≈ 1.23 µM).
